# Counter-ions that a name gives are not always drawn.
# Legend:
# [1] = In vitro human skin permeation, flow-through diffusion cells
# [2] = Plasma stability of prodrugs (bioconversion to parent drug); type: in vitro ADME
# Procedure: Approximately 1 mg/mL of stock solution of each prodrug was prepared in 100 μL of ethanol and 900 μL of acetonitrile. Next, 10 μL of stock was spiked into 1 mL of plasma and vortexed. The samples were kept sealed in an amber vial and samples were obtained to analyze for bioconversion to parent drug.
# An approximated 1 mg/mL stock solution of each prodrug was prepared in 100 μL of ethanol and 900 μL of acetonitrile. Next, 10 μL of stock was spiked into 1 mL of plasma and vortexed. The samples were kept sealed in an amber vial and samples were obtained to analyze for bioconversion to parent drug.
# Approximately 1 mg/mL of stock solution of each prodrug was prepared in 100 μL of ethanol and 900 μL of acetonitrile. Ten μL of stock was spiked into 1 mL of plasma and vortexed. The samples were kept sealed in an amber vial and samples were obtained to analyze for bioconversion to parent drug.
# [3] = Table 7, 2.36:1.18:1 PG:ethanol:H2O donor solution, analyte: THC from prodrug
# [4] = Table 7, 2.36:1.18:1 PG:ethanol:H2O donor solution, analyte: THC or intact prodrug as applied
# [5] = Table 7, 2.36:1.18:1 PG:ethanol:H2O donor solution, total THC equivalents (THC and/or prodrug)
# [6] = Table 8, gel formulation, analyte: THC or intact prodrug as applied
# [7] = Table 9, 2.36:1.18:1 pH = 5.5 PG:ethanol:H2O donor solution, analyte: THC or intact prodrug as applied
# [8] = Table 10, 2.36:1.18:1 pH = 5.5 PG:ethanol:H2O donor solution, analyte: THC or intact prodrug as applied
# [9] = Table 17, 90:8:2 PG:H2O:IPM donor solution, analyte: THC or intact prodrug as applied
# [10] = Table 18, 90:8:2 PG:H2O:IPM donor solution, analyte: THC or intact prodrug as applied
# [11] = Table 19, 90:8:2 PG:H2O:IPM donor solution, analyte: THC or intact prodrug as applied
# [12] = Table 13, gel formulation with 40% aqueous PEG 400 receiver fluid, analyte: THC or intact prodrug as applied
smiles,measurement,setting,value
"CCCCCc1cc(OC(=O)CNC=O)c2c(c1)OC(C)(C)[C@@H]1CCC(C)=C[C@@H]21 [ALL00120, Δ^9-Tetrahydrocannabinol N-formylglycyl ester]",24 h cumulative amt,[1]; [3],8.8 ± 1.2 nmol
same,24 h skin conc,[1]; [3],3.1 ± 1.1 µmol/g
same,Flux,[1]; [3],0.6 ± 0.1 nmol/cm^2/h
same,Lag time,[1]; [3],9.2 ± 0.8 h
same,24 h cumulative amt,[1]; [4],30.5 ± 7.0 nmol
same,24 h skin conc,[1]; [4],47.1 ± 6.3 µmol/g
same,Flux,[1]; [4],2.0 ± 0.5 nmol/cm^2/h
same,Lag time,[1]; [4],8.1 ± 1.6 h
same,Flux enhancement,"[1]; Table 7, 2.36:1.18:1 PG:ethanol:H2O donor solution, total THC equivalents",0.87
same,24 h cumulative amt,[1]; [5],39.3 ± 6.6 nmol
same,24 h skin conc,[1]; [5],50.2 ± 7.1 µmol/g
same,Flux,[1]; [5],2.7 ± 0.5 nmol/cm^2/h
same,Lag time,[1]; [5],8.4 ± 1.3 h
same,24 h skin conc,"[1]; Table 8, gel formulation, analyte: THC from prodrug",3.1 ± 2.1 µmol/g
same,24 h skin conc,[1]; [6],44.8 ± 1.6 µmol/g
same,24 h skin conc,"[1]; Table 8, gel formulation, total THC equivalents (THC and/or prodrug)",47.9 ± 2.8 µmol/g
same,% Prodrug at time (h),"[2]; Table 11, 0.1 h",70%
same,% Prodrug at time (h),"[2]; Table 11, 1 h",8%
same,% Prodrug at time (h),"[2]; Table 11, 22 h",0%
same,% Prodrug at time (h),"[2]; Table 11, 24 h",0%
same,% Prodrug at time (h),"[2]; Table 11, 42 h",0%
"CCCCCc1cc(OC(=O)CN(C)C=O)c2c(c1)OC(C)(C)[C@@H]1CCC(C)=C[C@@H]21 [ALL00121, Δ^9-Tetrahydrocannabinol N-formylsarcosyl ester]",24 h cumulative amt,[1]; [4],18.5 ± 5.6 nmol
same,24 h skin conc,[1]; [4],72.3 ± 54.0 µmol/g
same,Flux,[1]; [4],1.2 ± 0.3 nmol/cm^2/h
same,Lag time,[1]; [4],8.3 ± 0.5 h
same,24 h cumulative amt,[1]; [6],8.8 ± 0.1 nmol
same,24 h skin conc,[1]; [6],33.2 ± 7.2 µmol/g
same,Flux,[1]; [6],0.38 ± 0.03 nmol/cm^2/h
same,Lag time,[1]; [6],1.4 ± 0.0 h
same,% Prodrug at time (h),"[2]; Table 11, 0.1 h",100%
same,% Prodrug at time (h),"[2]; Table 11, 1 h",50%
same,% Prodrug at time (h),"[2]; Table 11, 22 h",10%
same,% Prodrug at time (h),"[2]; Table 11, 24 h",14%
same,% Prodrug at time (h),"[2]; Table 11, 42 h",0%
"CCCCCc1cc(OC(=O)C(=O)OCCOCCOCCOCCOC)c2c(c1)OC(C)(C)[C@@H]1CCC(C)=C[C@@H]21 [ALL00122, Δ^9-Tetrahydrocannabinol 3,6,9,12-tetraoxatridecyl oxalate]",24 h skin conc,[1]; [7],52.7 ± 3.2 µmol/g
same,% Prodrug at time (h),"[2]; Table 11, 0.1 h",0%
same,% Prodrug at time (h),"[2]; Table 11, 1 h",0%
same,% Prodrug at time (h),"[2]; Table 11, 22 h",0%
same,% Prodrug at time (h),"[2]; Table 11, 24 h",0%
same,% Prodrug at time (h),"[2]; Table 11, 42 h",0%
"CCCCCc1cc(OC(=O)CCC(=O)O)c2c(c1)OC(C)(C)[C@@H]1CCC(C)=C[C@@H]21 [ALL00123, Δ^9-Tetrahydrocannabinol hemisuccinate]",24 h cumulative amt,[1]; [6],2.3 ± 1.5 nmol
same,24 h skin conc,[1]; [6],110.4 ± 22.2 µmol/g
same,Flux,[1]; [6],0.15 ± 0.07 nmol/cm^2/h
same,% Prodrug at time (h),"[2]; Table 11, 0.1 h",0%
same,% Prodrug at time (h),"[2]; Table 11, 1 h",0%
same,% Prodrug at time (h),"[2]; Table 11, 22 h",0%
same,% Prodrug at time (h),"[2]; Table 11, 24 h",0%
same,% Prodrug at time (h),"[2]; Table 11, 42 h",0%
"CCCCCc1cc(OC(=O)NCCCCN)c2c(c1)OC(C)(C)[C@@H]1CCC(C)=C[C@@H]21 [ALL00124, Δ^9-Tetrahydrocannabinol 4-aminobutyl carbamate]",24 h cumulative amt,[1]; [7],138.7 ± 101.2 nmol
same,24 h skin conc,[1]; [7],17.3 ± 0.4 µmol/g
same,Flux,[1]; [7],9.4 ± 5.9 nmol/cm^2/h
same,Lag time,[1]; [7],9.1 ± 2.0 h
same,24 h cumulative amt,[1]; [8],245.2 ± 54.1 nmol
same,24 h skin conc,[1]; [8],4.3 ± 0.3 µmol/g
same,Flux,[1]; [8],16.1 ± 0.1 nmol/cm^2/h
same,Lag time,[1]; [8],1.4 ± 0.0 h
same,% Prodrug at time (h),"[2]; Table 11, 0.1 h",97%
same,% Prodrug at time (h),"[2]; Table 11, 1 h",97%
same,% Prodrug at time (h),"[2]; Table 11, 2 h",97%
same,% Prodrug at time (h),"[2]; Table 11, 3 h",96%
same,% Prodrug at time (h),"[2]; Table 11, 5 h",94%
same,% Prodrug at time (h),"[2]; Table 11, 24 h",71%
"CCCCCc1cc(OC(=O)OC[C@H](O)CO)c2c(c1)OC(C)(C)[C@@H]1CCC(C)=C[C@@H]21 [ALL00126, Δ^9-Tetrahydrocannabinol (R)-2,3-dihydroxypropyl carbonate]",24 h cumulative amt,[1]; [9],69.7 ± 10.7 nmol
same,24 h skin conc,[1]; [9],17.8 ± 4.8 µmol/g
same,Flux,[1]; [9],5.7 ± 0.0 nmol/cm^2/h
same,Lag time,[1]; [9],10.8 ± 2.1 h
same,% Prodrug at time (h),"[2]; Table 15, 0.1 h",100%
same,% Prodrug at time (h),"[2]; Table 15, 1 h",3%
same,% Prodrug at time (h),"[2]; Table 15, 2.5 h",1%
same,% Prodrug at time (h),"[2]; Table 15, 3.5 h",1%
"CCCCCc1cc(OC(=O)C(C)(CO)CO)c2c(c1)OC(C)(C)[C@@H]1CCC(C)=C[C@@H]21 [ALL00129, Δ^9-Tetrahydrocannabinol 3-hydroxy-2-(hydroxymethyl)-2-methylpropanoate]",24 h cumulative amt,[1]; [10],74.2 ± 8.1 nmol
same,24 h skin conc,[1]; [10],19.6 ± 12.6 µmol/g
same,Flux,[1]; [10],4.8 ± 0.7 nmol/cm^2/h
same,Lag time,[1]; [10],7.8 ± 1.3 h
same,% Prodrug at time (h),"[2]; Table 15, 0.1 h",100%
same,% Prodrug at time (h),"[2]; Table 15, 1 h",100%
same,% Prodrug at time (h),"[2]; Table 15, 3 h",98%
same,% Prodrug at time (h),"[2]; Table 15, 24 h",83%
"CCCCCc1cc(OC(=O)[C@@H](O)CO)c2c(c1)OC(C)(C)[C@@H]1CCC(C)=C[C@@H]21 [ALL00134, A9-Tetrahydrocannabinol (S)-2,3-dihydroxypropanoate]",24 h cumulative amt,[1]; [11],128.6 ± 5.1 nmol
same,24 h skin conc,[1]; [11],24.5 ± 12.3 µmol/g
same,Flux,[1]; [11],8.0 ± 0.3 nmol/cm^2/h
same,Lag time,[1]; [11],7.0 ± 0.1 h
same,% Prodrug at time (h),"[2]; Table 15, 0.1 h",96%
same,% Prodrug at time (h),"[2]; Table 15, 0.5 h",61%
same,% Prodrug at time (h),"[2]; Table 15, 2 h",15%
same,% Prodrug at time (h),"[2]; Table 15, 5 h",0.8%
same,% Prodrug at time (h),"[2]; Table 15, 24 h",0%
"CCCCCc1cc(OC(=O)OC[C@@H](O)CO)c2c(c1)OC(C)(C)[C@@H]1CCC(C)=C[C@@H]21 [ALL00138, Δ^9-Tetrahydrocannabinol (S)-2,3-dihydroxypropyl carbonate]",24 h cumulative amt,[1]; [10],18.2 ± 1.4 nmol
same,24 h skin conc,[1]; [10],7.2 ± 4.8 µmol/g
same,Flux,[1]; [10],1.0 ± 0.0 nmol/cm^2/h
same,Lag time,[1]; [10],5.9 ± 1.4 h
same,% Prodrug at time (h),"[2]; Table 15, 0.1 h",30%
same,% Prodrug at time (h),"[2]; Table 15, 0.5 h",0%
"CCCCCc1cc(OC(=O)CCN(C)C)c2c(c1)OC(C)(C)[C@@H]1CCC(C)=C[C@@H]21 [ALL00153, Δ^9-Tetrahydrocannabinol 3-(dimethylamino)propionate]",24 h skin conc,[1]; [12],1.6 ± 0.03 µmol/g
same,24 h skin conc,"[1]; Table 20, 90:8:2 PG:H2O:IPM donor solution (saturated), analyte: THC or intact prodrug as applied",0.6 ± 0.1 µmol/g
same,% Prodrug at time (h),"[2]; Table 14, 0 h",98%
same,% Prodrug at time (h),"[2]; Table 14, 1 h",72%
same,% Prodrug at time (h),"[2]; Table 14, 21 h",48%
same,% Prodrug at time (h),"[2]; Table 14, 24 h",41%
"CCCCCc1cc(OC(=O)CO)c2c(c1)OC(C)(C)[C@@H]1CCC(C)=C[C@@H]21 [ALL00154, Δ^9-Tetrahydrocannabinol glycolate]",24 h cumulative amt,[1]; [12],39.2 nmol
same,24 h skin conc,[1]; [12],2.6 ± 1.5 µmol/g
same,Flux,[1]; [12],3.23 nmol/cm^2/h
same,Lag time,[1]; [12],12.2 h
same,% Prodrug at time (h),"[2]; Table 14, 0 h",95%
same,% Prodrug at time (h),"[2]; Table 14, 1 h",0%
same,% Prodrug at time (h),"[2]; Table 14, 21 h",0%
same,% Prodrug at time (h),"[2]; Table 14, 24 h",0%
